Source: patent US8835134B2, “Cycloastragenol monoglucoside, preparation, pharmaceutical composition and application thereof” (Tianjin Institute of Pharmaceutical Research, priority 2007, dated 2014)

System: anesthetized open-chest dogs
Test: Hemodynamics of anesthetized open-chest dogs, intravenous infusion
Assay type: in vivo, mongrel dogs
Settings: 0.3 mg/kg iv
Protocol: The animals were anesthetized by intravenous injection of 30 mg/kg sodium pentobarbital, tracheally intubated, and mechanically ventilated with positive air pressure. Left thoracotomy was performed through the fourth intercostal space and the heart was suspended in a pericardial cradle, the aortic root was isolated and a probe of blood flow meter (12 or 14 mm in diameter) was fixed to measure the aortic blood flow as a representation of cardiac output (CO), the circumflex branch of left coronary artery was isolated and a probe of blood flow meter (2 or 2.5 mm in diameter) was fixed to measure the coronary blood flow (CBF). A polyethylene catheter filled with heparin physiological saline was inserted through cardiac apex into the left ventricle to measure the left ventricular pressure (LVP) and left ventricular end-diastolic pressure (LVEDP), Peak positive and peak negative first derivatives of the LVP (+ LVdp/dt and − LVdp/dt) were calculated with the Acknowledge software. The systolic blood pressure (SBP), diastolic blood pressure (DBP) and mean arterial pressure (MAP) were measured by polyethylene catheter via the femoral artery, ECG □ was measured by a AC-601G ECG amplifier. The above-mentioned analog signal was input into a data acquisition workstation (MP100, BIOPAC Systems, USA) to a computer running Acknowledge (version 3.7.1).
After surgery, various indexes before administration were recorded until the indexes were stable, and then intravenous infusion administration was conducted. Thirty dogs were divided into five groups (six dogs in each group), the experiment groups were given 0.15, 0.3, 0.6 mg/kg of ASP-[…] respectively, the normal control group was given 1 ml/kg of solvent, and the positive control group was given 0.3 mg/kg of astragaloside IV. The delivery volumes were 15 ml for each dog was and the delivery velocity was 1 ml/min. The indexes were recorded at 5, 10, 15, 20, 30, 45, 60, 90 and 120 mins after drug administration. At the end of experiment, the hearts were excised and weighted. The myocardial blood flow for per hectogram (CF), coronary resistance (CR), cardiac index (CI), left ventricular work (LVW) and total peripheral resistance (TPR) were calculated according to the following formulae: CF=CBF×[…]/heart weight CR=MAP/CF CI=CO/0.11×(body weight)^2/3 LVW=CO×(MAP−5)×1.052×0.0136 TPR=MAP×79.92/CO
Data are expressed as mean±SD ( x±s), the paired t-test was used to compare the significance between before and after administration, the unpaired t-test was adopted for comparison between groups.

SMILES: CC(C)(O)[C@@H]1CC[C@](C)([C@H]2[C@@H](O)C[C@@]3(C)[C@@H]4C[C@H](O[C@@H]5O[C@H](CO)[C@@H](O)[C@H](O)[C@H]5O)[C@H]5C(C)(C)[C@@H](O[C@@H]6OC[C@@H](O)[C@H](O)[C@H]6O)CC[C@@]56C[C@@]46CC[C@]23C)O1 [astragaloside IV, reference compound]
- +LVdp/dtmax: significantly increased
- CO, CI and TPR: no significant effect
- LVEDP: significantly decreased
- LVSP, LVW and −LVdp/dtmax: no significant change
- CF (5 min after administration): 57.2 ± 14.0 ml/min/100 g
- CF change vs before administration (5 min after administration): (0.2 ± 3.5) ml/min/100 g
- CI (5 min after administration): 2.20 ± 0.59 L/min/m^2
- CI change vs before administration (5 min after administration): (0.06 ± 0.10) L/min/m^2
- CO (5 min after administration): 1.23 ± 0.36 L/min
- CO change vs before administration (5 min after administration): (0.03 ± 0.05) L/min
- CR (5 min after administration): 1.36 ± 0.47 mmHg/ml/min/100 g
- CR change vs before administration (5 min after administration): (−0.05 ± 0.07) mmHg/ml/min/100 g
- LVEDP (5 min after administration): 1.6 ± 1.4 mmHg
- LVEDP change vs before administration (5 min after administration): (−0.80 ± 0.81) mmHg
- LVP (5 min after administration): 104 ± 10 mmHg
- LVP change vs before administration (5 min after administration): (1.1 ± 6.5) mmHg
- LVW (5 min after administration): 1.22 ± 0.47 kg · m
- LVW change vs before administration (5 min after administration): (0.01 ± 0.05) kg · m
- TPR (5 min after administration): 5046 ± 1572 dyn · s/cm^5
- TPR change vs before administration (5 min after administration): (−178 ± 384) dyn · s/cm^5
- dp/dt (5 min after administration): 1082 ± 176 mmHg/s
- dp/dt change vs before administration (5 min after administration): (27 ± 75) mmHg/s
- −dp/dt (5 min after administration): −878 ± 179 mmHg/s
- −dp/dt change vs before administration (5 min after administration): (−43 ± 104) mmHg/s
- CF (10 min after administration): 59.0 ± 20.5 ml/min/100 g
- CF change vs before administration (10 min after administration): (2.0 ± 6.5) ml/min/100 g
- CI (10 min after administration): 2.21 ± 0.52 L/min/m^2
- CI change vs before administration (10 min after administration): (0.07 ± 0.08) L/min/m^2
- CO (10 min after administration): 1.24 ± 0.32 L/min
- CO change vs before administration (10 min after administration): (0.04 ± 0.05) L/min
- CR (10 min after administration): 1.39 ± 0.45 mmHg/ml/min/100 g
- CR change vs before administration (10 min after administration): (−0.01 ± 0.12) mmHg/ml/min/100 g
- LVEDP (10 min after administration): 1.7 ± 1.3 mmHg
- LVEDP change vs before administration (10 min after administration): (−0.73 ± 0.54) mmHg
- LVP (10 min after administration): 105 ± 10 mmHg
- LVP change vs before administration (10 min after administration): (2.5 ± 11.7) mmHg
- LVW (10 min after administration): 1.26 ± 0.39 kg · m
- LVW change vs before administration (10 min after administration): (0.05 ± 0.13) kg · m
- TPR (10 min after administration): 5162 ± 1495 dyn · s/cm^5
- TPR change vs before administration (10 min after administration): (−62 ± 517) dyn · s/cm^5
- dp/dt (10 min after administration): 1141 ± 136 mmHg/s
- dp/dt change vs before administration (10 min after administration): (86 ± 61) mmHg/s
- −dp/dt (10 min after administration): −882 ± 163 mmHg/s
- −dp/dt change vs before administration (10 min after administration): (−46 ± 118) mmHg/s
- CF (15 min after administration): 57.0 ± 22.3 ml/min/100 g
- CF change vs before administration (15 min after administration): (0.0 ± 7.2) ml/min/100 g
- CI (15 min after administration): 2.16 ± 0.51 L/min/m^2
- CI change vs before administration (15 min after administration): (0.02 ± 0.07) L/min/m^2
- CO (15 min after administration): 1.21 ± 0.30 L/min
- CO change vs before administration (15 min after administration): (0.01 ± 0.04) L/min
- CR (15 min after administration): 1.46 ± 0.50 mmHg/ml/min/100 g
- CR change vs before administration (15 min after administration): (0.06 ± 0.15) mmHg/ml/min/100 g
- LVEDP (15 min after administration): 1.0 ± 1.2 mmHg
- LVEDP change vs before administration (15 min after administration): (−1.40 ± 0.54) mmHg
- LVP (15 min after administration): 103 ± 12 mmHg
- LVP change vs before administration (15 min after administration): (−0.3 ± 12.2) mmHg
- LVW (15 min after administration): 1.22 ± 0.35 kg · m
- LVW change vs before administration (15 min after administration): (0.01 ± 0.16) kg · m
- TPR (15 min after administration): 5319 ± 1695 dyn · s/cm^5
- TPR change vs before administration (15 min after administration): (95 ± 662) dyn · s/cm^5
- dp/dt (15 min after administration): 1167 ± 157 mmHg/s
- dp/dt change vs before administration (15 min after administration): (112 ± 31) mmHg/s
- −dp/dt (15 min after administration): −847 ± 141 mmHg/s
- −dp/dt change vs before administration (15 min after administration): (−12 ± 124) mmHg/s
- CF (20 min after administration): 59.1 ± 21.2 ml/min/100 g
- CF change vs before administration (20 min after administration): (2.1 ± 7.3) ml/min/100 g
- CI (20 min after administration): 2.15 ± 0.44 L/min/m^2
- CI change vs before administration (20 min after administration): (0.00 ± 0.10) L/min/m^2
- CO (20 min after administration): 1.20 ± 0.27 L/min
- CO change vs before administration (20 min after administration): (0.00 ± 0.06) L/min
- CR (20 min after administration): 1.37 ± 0.42 mmHg/ml/min/100 g
- CR change vs before administration (20 min after administration): (−0.03 ± 0.16) mmHg/ml/min/100 g
- LVEDP (20 min after administration): 1.0 ± 1.1 mmHg
- LVEDP change vs before administration (20 min after administration): (−1.46 ± 0.68) mmHg
- LVP (20 min after administration): 104 ± 11 mmHg
- LVP change vs before administration (20 min after administration): (1.2 ± 16.2) mmHg
- LVW (20 min after administration): 1.2 ± 0.31 kg · m
- LVW change vs before administration (20 min after administration): (−0.01 ± 0.22) kg · m
- TPR (20 min after administration): 5203 ± 1464 dyn · s/cm^5
- TPR change vs before administration (20 min after administration): (−21 ± 735) dyn · s/cm^5
- dp/dt (20 min after administration): 1165 ± 112 mmHg/s
- dp/dt change vs before administration (20 min after administration): (110 ± 67) mmHg/s
- −dp/dt (20 min after administration): −875 ± 105 mmHg/s
- −dp/dt change vs before administration (20 min after administration): (−39 ± 142) mmHg/s
- CF (30 min after administration): 57.8 ± 16.6 ml/min/100 g
- CF change vs before administration (30 min after administration): (0.8 ± 3.2) ml/min/100 g
- CI (30 min after administration): 2.08 ± 0.48 L/min/m^2
- CI change vs before administration (30 min after administration): (−0.07 ± 0.17 ^ L/min/m^2
- CO (30 min after administration): 1.16 ± 0.29 L/min
- CO change vs before administration (30 min after administration): (−0.04 ± 0.09) L/min
- CR (30 min after administration): 1.41 ± 0.47 mmHg/ml/min/100 g
- CR change vs before administration (30 min after administration): (0.00 ± 0.13) mmHg/ml/min/100 g
- LVEDP (30 min after administration): 1.0 ± 1.4 mmHg
- LVEDP change vs before administration (30 min after administration): (−1.44 ± 0.90) mmHg
- LVP (30 min after administration): 102 ± 11 mmHg
- LVP change vs before administration (30 min after administration): (−0.7 ± 13.7) mmHg
- LVW (30 min after administration): 1.19 ± 0.40 kg · m
- LVW change vs before administration (30 min after administration): (−0.02 ± 0.15) kg · m
